In ChEMBL document CHEMBL4014274, “Oligothiophene compounds inhibit the membrane fusion between H5N1 avian influenza virus and the endosome of host cell” (Eur J Med Chem, 2017) one finds IC50, CC50 and Ratio IC50 data, which are given here for 42 compounds.

Structures are written as SMILES.

A short description of data set [1]: Inhibition of Influenza A virus (A/Thailand/Kan353/2004(H5N1)) hemagglutinin expressed in human 293T cells coexpressing NA assessed as reduction in HA mediated viral membrane fusion with MDCK cells pretreated for 30 mins with virus followed by infection in MDCK cells measured after 48 hrs by luciferase reporter gene assay. It counts as cell-based. On the technique in general: A reporter such as luciferase makes a cellular process visible.

A short description of data set [2]: Cytotoxicity against MDCK cells after 2 days by MTT assay. It counts as cell-based, Canis lupus familiaris. Conditions: dog; call rule not given here.
Data set [3] in a line: Inhibition of Influenza A virus (A/Puerto Rico/8/34(H1N1)) neuraminidase activity infected in MDCK cells assessed as reduction in progeny production using 2-(4-Methylumbelliferyl)-a-D-N-acetylneuraminic acid sodium salt as substrate pretreated for 1 hr with virus followed by 1 hr infection in MDCK cells measured after 48 hrs by fluorescence assay. It counts as cell-based, Influenza A virus (A/Puerto Rico/8/1934(H1N1)).

For data set [4], the system named is Influenza A virus (A/Thailand/Kan353/2004(H5N1)). Briefly: Potency index, ratio of CL-385319 IC50 to compound IC50 for inhibition of Influenza A virus (A/Thailand/Kan353/2004(H5N1)) hemagglutinin expressed in human 293T cells coexpressing NA assessed as reduction in HA mediated viral membrane fusion with MDCK cells. It counts as cell-based.
[5] abbreviates: Influenza A virus, read-out: IC50.

Broadly, the IC50 is the concentration that gives 50% inhibition. With `O=C(NCCCc1ccc(-c2ccc(CCCNC(=O)c3ccccc3Cl)s2)s1)c1ccccc1Cl`, in data set [1], the IC50 result is “Not Active”.

For `O=C(NCCCCc1ccc(-c2ccc(-c3ccc(CCCCNC(=O)c4cc(F)cc(C(F)(F)F)c4)s3)s2)s1)c1cc(F)cc(C(F)(F)F)c1`, in data set [1], the IC50 entry was “Not Active”. Same read-out and setting: then `O=C(NCCCc1ccc(-c2ccc(-c3ccc(CCCNC(=O)c4cc(F)cc(C(F)(F)F)c4)s3)s2)s1)c1cc(F)cc(C(F)(F)F)c1`, with “Not Active”. As to `BrCCCCc1ccc(CCCCBr)s1`, the 50% inhibitory concentration (IC50) entry in data set [1] is given as “Not Active”. Broadly, the CC50 is the concentration giving 50% cytotoxicity. For `NCCCc1ccc(-c2ccc(-c3ccc(CCCN)s3)s2)s1`, the IC50 in data set [1] (setting [5]) is 4.15 µM. For the same compound, the CC50 at 48 h in data set [2] is more than 200 µM. Regarding `NCCCc1ccc(-c2ccc(CCCN)s2)s1`, the IC50 result in data set [1] was “Not Active”. The same measure, in the same setting: then `O=C(NCCCCc1ccc(-c2ccc(-c3cccs3)s2)s1)c1cc(F)cc(C(F)(F)F)c1`, with “Not Active”. For the compound `O=C(NCCCc1cccs1)c1cc(F)cc(C(F)(F)F)c1`, the IC50 in data set [1] (setting [5]) came to 7.24 µM. Moreover, the midpoint of cytotoxicity in data set [2], the CC50 at 48 h, lay at 40.2 µM. The like results for `O=C(NCCCCc1cccs1)c1cc(F)cc(C(F)(F)F)c1` were, in that order, 4.73 µM and 43.5 µM. Taken in the same sequence, the figures for `O=C(NCC(c1cccs1)N1CCCC1)c1cc(F)cc(C(F)(F)F)c1` (stereo not drawn) were 6.41 µM and 239 µM.

With `NCCCc1ccc(-c2ccc(-c3ccc(-c4cccs4)s3)s2)s1`, the IC50 in data set [1] (setting [5]) stood at 0.171 µM; in data set [3] it was 0.768 µM. Besides, in data set [2], the CC50 at 48 h was more than 200 µM.

Regarding `[N-]=[N+]=NCCCCc1ccc(-c2ccc(-c3ccc(-c4ccc(CCCCN=[N+]=[N-])s4)s3)s2)s1`, the IC50 entry in data set [1] is on record as “Not Active”.

In the case of `NCCCCc1ccc(CCCCN)s1`, in data set [1], the IC50 entry is “Not Active”. On the same count and under the same terms, then `[N-]=[N+]=NCCCCc1ccc(-c2ccc(-c3ccc(-c4cccs4)s3)s2)s1`, with “Not Active”; and `NCCCCc1ccc(-c2ccc(-c3ccc(-c4ccc(CCCCN)s4)s3)s2)s1`, with “Not Active”. Consider `BrCCCc1ccc(-c2ccc(-c3cccs3)s2)s1`, for which the IC50 in data set [1] (setting [5]) was found to be 12.5 µM. The CC50 at 48 h in data set [2] amounted to 35.3 µM.

Consider `O=C(NCCCCc1ccc(CCCCNC(=O)c2cc(F)cc(C(F)(F)F)c2)s1)c1cc(F)cc(C(F)(F)F)c1`, for which the IC50 entry in data set [1] is listed as “Not Active”.

Turning to `BrCCCc1ccc(-c2ccc(-c3ccc(CCCBr)s3)s2)s1`, the IC50 in data set [1] (setting [5]) came out at 6.64 µM. Besides, the CC50 at 48 h in data set [2] is more than 200 µM. For `NCCCCc1ccc(-c2ccc(-c3ccc(-c4cccs4)s3)s2)s1`, the IC50 entry in data set [1] is given as “Not Active”. Same read-out and setting: in the case of `NCCCCc1ccc(-c2cccs2)s1` it was “Not Active”. For the compound `BrCCCCc1ccc(-c2ccc(-c3cccs3)s2)s1`, the IC50 in data set [1] (setting [5]) was found to be 11.4 µM. Further, the midpoint of cytotoxicity in data set [2], the CC50 at 48 h, lay at 23.8 µM. With `[N-]=[N+]=NCCCCc1ccc(-c2ccc(-c3cccs3)s2)s1`, the IC50 in data set [1] (setting [5]) came to 11.1 µM. This compound showed a CC50 at 48 h in data set [2] of more than 200 µM. Turning to `O=C(NCCc1cccs1)c1cc(F)cc(C(F)(F)F)c1`, in data set [1] (setting [5]), the IC50 was 0.22 µM.

Turning to `BrCCCCc1ccc(-c2ccc(-c3ccc(-c4ccc(CCCCBr)s4)s3)s2)s1`, the IC50 result in data set [1] is given as “Not Active”. As to `O=C(NCCCc1ccc(-c2cccs2)s1)c1cc(F)cc(C(F)(F)F)c1`, the IC50 in data set [1] (setting [5]) worked out at 42.1 µM. The compound further registered a CC50 at 48 h in data set [2] of 46.7 µM. Taken in the same sequence, the figures for `[N-]=[N+]=NCCCc1ccc(-c2ccc(-c3ccc(-c4cccs4)s3)s2)s1` were 46.1 µM and more than 100 µM. Taken in the same sequence, the figures for `BrCCCCc1ccc(-c2ccc(-c3ccc(CCCCBr)s3)s2)s1` were 0.696 µM and more than 200 µM. On to `NCCCCc1ccc(-c2ccc(-c3cccs3)s2)s1`, for which the IC50 is 0.029 µM in data set [1] (setting [5]) and 1.24 µM in data set [3]. This compound showed a CC50 at 48 h in data set [2] of 13.3 µM. In addition, the Ratio IC50 in data set [4] worked out at 1000. `[N-]=[N+]=NCCCc1ccc(-c2ccc(-c3cccs3)s2)s1`: the half-maximal inhibitory concentration (IC50) in data set [1] (setting [5]) worked out at 23 µM. Besides, the CC50 at 48 h in data set [2] was more than 200 µM. Consider `[N-]=[N+]=NCCCCc1ccc(-c2ccc(-c3ccc(CCCCN=[N+]=[N-])s3)s2)s1`, for which the IC50 result in data set [1] is reported as “Not Active”. Still for that read-out and setting: in the case of `O=C(NCCCc1ccc(-c2ccc(CCCNC(=O)c3cc(F)cc(C(F)(F)F)c3)s2)s1)c1cc(F)cc(C(F)(F)F)c1` it was “Not Active”.

For `NCCCc1ccc(-c2ccc(-c3cccs3)s2)s1`, the IC50 in data set [1] (setting [5]) stood at 2.88 µM; in data set [3] it was 1.12 µM. For the same compound, the CC50 at 48 h in data set [2] was determined as 18.9 µM. For the compound `O=C(NCCCc1ccc(-c2ccc(-c3cccs3)s2)s1)c1cc(F)cc(C(F)(F)F)c1`, the IC50 entry in data set [1] is recorded as “Not Active”. `O=C(NCCCCc1ccc(-c2cccs2)s1)c1cc(F)cc(C(F)(F)F)c1`: the IC50 in data set [1] (setting [5]) is 19.8 µM. In addition, the CC50 at 48 h in data set [2] worked out at 27.4 µM.

As to `BrCCCCc1ccc(-c2ccc(-c3ccc(-c4cccs4)s3)s2)s1`, the IC50 result in data set [1] was “Not Active”.

In the case of `O=C(NCCN1CCCCC1)c1cc(F)cc(C(F)(F)F)c1`, the figures for the IC50 in data set [1] (setting [5]) and in data set [3] were 10.6 µM and 72 µM, respectively. The CC50 at 48 h in data set [2] turned out to be 1370 µM. Turning to `BrCCCc1ccc(-c2ccc(CCCBr)s2)s1`, the IC50 entry in data set [1] is recorded as “Not Active”. For `O=C(NCCCCc1ccc(-c2ccc(CCCCNC(=O)c3cc(F)cc(C(F)(F)F)c3)s2)s1)c1cc(F)cc(C(F)(F)F)c1`, the IC50 result in data set [1] is listed as “Not Active”. `NCCCCc1ccc(-c2ccc(CCCCN)s2)s1`: the IC50 in data set [1] (setting [5]) worked out at 0.0819 µM. Further, it took 26.5 µM to reach half-maximal cytotoxicity in data set [2] (CC50 at 48 h). For the compound `O=C(NCCCc1ccc(-c2ccc(CCCNC(=O)c3cc(O)cc(O)c3)s2)s1)c1cc(O)cc(O)c1`, in data set [1], the IC50 entry is “Not Active”. Regarding `BrCCCc1ccc(-c2ccc(-c3ccc(-c4cccs4)s3)s2)s1`, the IC50 in data set [1] (setting [5]) came out at 74.1 µM. Moreover, the CC50 at 48 h in data set [2] was more than 200 µM. Consider `NCCCCc1ccc(-c2ccc(-c3ccc(CCCCN)s3)s2)s1`, for which the IC50 was 0.037 µM in data set [1] (setting [5]) and 3.29 µM in data set [3]. The compound also showed a CC50 at 48 h in data set [2] of 13 µM.
